Test results as given in the NIST ThermoML archive (doi:10.1007/s10765-009-0581-7).
± gives the expanded uncertainty stated by the source.

Test: xn = mol fraction of the nth substance listed
Conditions: for surface tension liquid-gas: Ring tensiometer; for mass density: 101 kPa, Liquid

CC#N [acetonitrile] + CCCO
Conditions | mass density, 298.15 K [kg/m3] | mass density, 303.15 K [kg/m3] | mass density, 308.15 K [kg/m3] | mass density, 313.15 K [kg/m3] | surface tension liquid-gas, 298.15 K [mN/m] | surface tension liquid-gas, 303.15 K [mN/m] | surface tension liquid-gas, 308.15 K [mN/m] | surface tension liquid-gas, 313.15 K [mN/m]
x1 = 0.1255 | 796.74 ± 1.9 | 792.49 ± 1.9 | 789.47 ± 1.9 | 783.74 ± 2 | 23.6 ± 0.4 | 23.2 ± 0.4 | 22.8 ± 0.4 | 22.4 ± 0.4
x1 = 0.2452 | 794.01 ± 1.9 | 789.62 ± 1.9 | 786.3 ± 2 | 780.62 ± 2 | 23.9 ± 0.4 | 23.5 ± 0.4 | 23.1 ± 0.4 | 22.7 ± 0.4
x1 = 0.3466 | 791.7 ± 1.9 | 787.18 ± 1.9 | 783.62 ± 2 | 777.99 ± 2 | 24.2 ± 0.4 | 23.8 ± 0.4 | 23.4 ± 0.4 | 23 ± 0.4
x1 = 0.4995 | 788.21 ± 1.9 | 783.51 ± 2 | 779.56 ± 2 | 774.01 ± 2 | 24.9 ± 0.4 | 24.5 ± 0.4 | 24.2 ± 0.4 | 23.8 ± 0.4
x1 = 0.6449 | 784.9 ± 2 | 780.02 ± 2 | 775.71 ± 2 | 770.23 ± 2 | 25.8 ± 0.4 | 25.4 ± 0.4 | 25 ± 0.4 | 24.6 ± 0.4
x1 = 0.7492 | 782.52 ± 2 | 777.52 ± 2 | 772.95 ± 2 | 767.52 ± 2.1 | 26.6 ± 0.4 | 26.2 ± 0.4 | 25.8 ± 0.4 | 25.4 ± 0.4
x1 = 0.8645 | 779.89 ± 2 | 774.75 ± 2 | 769.89 ± 2 | 764.52 ± 2.1 | 27.5 ± 0.4 | 27.1 ± 0.4 | 26.7 ± 0.4 | 26.3 ± 0.4
x1 = 0.9101 | 778.85 ± 2 | 773.66 ± 2 | 768.68 ± 2.1 | 763.34 ± 2.1 | 27.9 ± 0.4 | 27.5 ± 0.4 | 27.1 ± 0.4 | 26.8 ± 0.4
x1 = 1 | 776.75 ± 2 | 771.5 ± 2 | 766.3 ± 2.1 | 761 ± 2.1 | 28.9 ± 0.5 | 28.5 ± 0.4 | 28.1 ± 0.4 | 27.7 ± 0.4
